In patent US12428433B2, “Fluorine-containing heterocyclic derivatives with macrocyclic structure and use thereof” (ScinnoHub Pharmaceutical Co., Ltd, priority 2019, dated 2025):
Read-outs that look alike come from different tables or passages of the source.

Key:
[1] = In-vivo pharmacokinetic study on SD rats, intravenous and oral; details: rat, plasma; for AUC(0-t): read-out: Area under curve AUC(0-t); for Cmax: read-out: Concentration to peak Cmax; for half-life: read-out: Half-life period t1/2 (converted); for bioavailability: read-out: Bioavailability F %
Protocol: Species: SD rats, SPF level. Source: the animals were transferred from the animal repository (999M-017) of the experimental institution of Shanghai Sippe-Bk Lab Animal Co., Ltd. Quantity: 3 rats for each formulation.
2.1 An appropriate amount of test samples were accurately weighed, added to a final volume of 5% DMSO, 10% polyethylene glycol-15 hydroxystearate and 85% normal saline, and fully mixed by vortex or ultrasound to obtain 0.2 mg/mL administration solution for intravenous administration.
2.2 An appropriate amount of test samples were accurately weighed, added to a final volume of 5% DMSO, 10% polyethylene glycol-15 hydroxystearate and 85% normal saline, and fully mixed by vortex or ultrasound to obtain 0.5 mg/mL administration solution for oral and intragastric administration.
Weighing was carried out before administration, and the dosage was calculated according to the weight. Intravenous administration, or oral intragastric administration was carried out.
The blood sampling was carried out before administration and 0.083 hour, 0.25 hour, 0.5 hour, 1 hour, 2 hours, 4 hours, 6 hours, 8 hours, and 24 hours after administration.
The blood sampling was carried out through a jugular vein or other suitable modes, and about 0.20 mL of each sample was collected. Heparin sodium was used for anticoagulation, the collected blood samples were placed on ice, and plasma was centrifuged within 2 hours (the centrifugation was carried out by a centrifugal force of 6,800 g for 6 minutes at 2° C. to 8° C.). The collected plasma samples were stored in a refrigerator at −80° C. before analysis, and the remaining plasma samples after analysis were continuously stored in the refrigerator at −80° C. for temporary storage.
A plasma concentration of a test subject was detected, a plasma concentration-time curve was drawn, and BLQs were all recorded as 0. […] According to blood concentration data at different time points, the pharmacokinetic parameters such as AUC(0-t), T1/2 and Cmax were calculated by WinNonlin.

[2] = system: Ba/F3-LMNA-NTRK1-F589L; experiment: In-vitro cell viability (CellTiter-Glo), BaF3 cell lines; format: cell-based; details: Mus musculus, 72 hours
Protocol: (§1) Hefei Precedo Biomedical Technology Co., Ltd. was commissioned to complete the testing example, and the cell lines used were constructed by this company.
(§2) In-vitro anti-proliferative effects of the compound of the present application on 6 BaF3 cell lines were measured.
(§3) 6 Ba/F3 cell lines were cultured with RPMI 1640 (Biological Industries, Israel)+10% fetal calf serum (Biological Industries, Israel)+1% double antibiotics (Penicillin Streptomycin solution, Coring, USA), and cells were cultured for two generations after resuscitation, to be tested.
(§4) The to-be-tested compound was prepared into 10 mM mother solution with DMSO, and then diluted to 1 mM with DMSO. The solution was diluted by 3 times to prepare into 1.0000 mM, 0.3333 mM, 0.1111 mM, 0.03704 mM, 0.01235 mM, 0.00412 mM, 0.00137 mM, 0.00046 mM, 0.00015 mM, and […], and stored in a 96-well drug plate (Beaver, Suzhou), with 10 concentration gradients in total. Meanwhile, an equal volume of DMSO solvent was used as a negative control.
(§5) The prepared 1,000× compounds of 10 concentration gradients were respectively diluted by 50 times into 20× compounds with complete medium, and stored in a 96-well drug plate (Beaver, Suzhou), with 10 concentration gradients in total. Meanwhile, an equal volume of DMSO solvent was used as a negative control.
(§6) Cell suspension in logarithmic growth phase was inoculated on a 96-well white cell culture plate (Corning 3917, NY, USA), and a volume of each well was 95 μl (about 2000 cells/well).
(§7) 5 μl of 20× to-be-tested compounds were respectively added into the culture plate containing 95 μl of cell suspension above, and mixed evenly, with 2 wells for each concentration gradient. Final concentrations of the to-be-tested compounds were 1.0000 μM, 0.3333 μM, 0.1111 μM, 0.03704 μM, 0.01235 μM, 0.00412 μM, 0.00137 μM, 0.00046 μM, 0.00015 μM, and […] respectively.
(§8) Incubation was carried out in an incubator at 37° C. under 5% CO2 for 72 hours.
(§9) The following steps were carried out according to the instruction of Promega CellTiter-Glo Luminescence Cell Viability Assay Kit (Promega-G7573).
(§10) A corresponding […] value RLU of each well was obtained through reading by SpectraMax Paradigm. Cell viability data was processed by the following formula:
(§11) Cell viability(%)=(RLUDrug−RLUMin)/(RLUMax−RLUMin)*100%. Cell viabilities of compounds of different concentrations were calculated in EXCEL, then cell viability curves were made by GraphPad Prism software, and related parameters were calculated. The parameters comprised a maximum cell viability, a minimum cell viability, and an IC50 value.

[3] = system: Ba/F3-LMNA-NTRK1-V573I; experiment: as above; format: cell-based; details: Mus musculus, 72 hours
Protocol: as §1, §2, §3, §4, §5, §6, §7, §8, §9, §10, §11

[4] = system: Ba/F3-LMNA-NTRK1; experiment: as above; format: cell-based; details: Mus musculus, 72 hours
Protocol: as §1, §2, §3, §4, §5, §6, §7, §8, §9, §10, §11

[5] = system: Ba/F3-LMNA-NTRK1-G667S; experiment: as above; format: cell-based; details: Mus musculus, 72 hours
Protocol: as §1, §2, §3, §4, §5, §6, §7, §8, §9, §10, §11

[6] = system: Ba/F3-TEL-NTRK3; experiment: as above; format: cell-based; details: Mus musculus, 72 hours
Protocol: as §1, §2, §3, §4, §5, §6, §7, §8, §9, §10, §11

[7] = system: Ba/F3-TEL-NTRK2; experiment: as above; format: cell-based; details: Mus musculus, 72 hours
Protocol: as §1, §2, §3, §4, §5, §6, §7, §8, §9, §10, §11

| Structure (SMILES) | AUC(0-t) ([1]; IV @ 1 mg/kg) [ng·h/mL] | Cmax ([1]; IV @ 1 mg/kg) [nM] | half-life ([1]; IV @ 1 mg/kg) [h] | AUC(0-t) ([1]; PO @ 5 mg/kg) [ng·h/mL] | bioavailability ([1]; PO @ 5 mg/kg) [%] | Cmax ([1]; PO @ 5 mg/kg) [nM] | half-life ([1]; PO @ 5 mg/kg) [h] | IC50 [2] [nM] | IC50 [3] [nM] | IC50 [4] [nM] | IC50 [5] [nM] | IC50 [6] [nM] | IC50 [7] [nM] |
| --- | --- | --- | --- | --- | --- | --- | --- | --- | --- | --- | --- | --- | --- |
| O=C1N[C@H]2C[C@H](C2)Oc2ncc(F)cc2[C@H]2CCCN2c2nc3c1cnn3cc2F [Example 2, ((1^3E,1^4E,2^2R,5^1S,5^3S)-1^6,3^5-difluoro-4-oxa-6-aza-1(5,3)-pyrazolo[1,5-a]pyrimidine-3(3,2)-pyridine-2(1,2)-pyrrolidine-5(1,3)-cyclobutancycloheptan-7-one] | 422 | 875 | 0.33 | 1500 | 70.9 | 527 | 0.55 | 2.4 | 0.3 | 0.7 | 3.4 | 1.7 | 1.6 |
| C[C@H]1Nc2nc3c(cnn3cc2F)C(=O)N[C@H]2C[C@H](C2)Oc2ncc(F)cc21 [Example 3, (3^1S,3^3S,6^3E,6^4E,8R)-1^5,6^6-difluoro-8-methyl-2-oxo-4,7-diaza-6(3,5)-pyrazolo[1,5-a]pyrimidine-1(2,3)-pyridine-3(1,3)-cyclobutylcyclooctane-5-one] | 1480 | 573 | 5 | 8770 | 119 | 1300 | 3.01 | 1.2 | 1.1 | 1.6 | 8.4 | 5 | 3.4 |
| C[C@H]1Nc2ccn3ncc(c3n2)C(=O)N[C@H]2C[C@H](C2)Oc2ncc(F)cc21 [Positive control 2, reference compound] | 1010 | 781 | 4.54 | 3350 | 66.3 | 633 | 3 | 4.5 | 2.3 | 4.1 | 19.9 | 9.8 | 7.3 |
| O=C1N[C@H]2C[C@H](C2)Oc2ncc(F)cc2[C@H]2CCCN2c2ccn3ncc1c3n2 (stereo in doubt) [Positive control 1, reference compound] | 605 | 1160 | 0.45 | 2270 | 75.1 | 932 | 0.68 | 6.6 | 0.2 | 0.5 | 2.7 | 0.9 | 0.9 |
